Measured values as given in patent US20130055471A1, “Transgenic Ozone-Resistant Plants” (priority 2009, published 2013).
Entries after “also recorded” stand apart in the source; their conditions may differ.

Columns and labels:
[1] = tested on: Corn; experiment: Full leaf Corn Total Dark Respiration (TDR) measurements; format: in vivo, Zea mays L.
Description: (§1) Ozone generators (model OP-35-3P, Grupo Interozone, Brazil) were coupled to ozone monitors (model 202, 2B Technologies, Inc. […] Crops Advance Brazil). […] This was used as the upper limit for phytotron number one. […] Ozone levels of phytotron number two and three were permanently measured at 10 second intervals and averaged per minute. Each ozone monitor fed averaged values over an analog output to an ozone monitor-ozone generator interface. Hysteresis was set at +/-5 ppbv. Ozone levels were monitored close to the inlet of the two internal circulation ventilators. The ozone generators were adapted to accept an external digital signal from the interface. Respiration of plant material was tested as follows: Partial oxygen pressure drops due to oxygen consumption as result of dark respiration were measured using phase shift fluorescence measurement. For this, a NeoFoxTM Phase Measurement System was used (Fluorometer Bench version using a […] laboratory-grade bifurcated optical fiber with FOXY-R-8 cm overcoated fluorescence oxygen needle sensor, Ocean Optics Inc. USA). Fluorescence phase shift was expressed as Tau in microseconds (μs) and has an inverse and linear relation with the partial oxygen pressure. […] In addition, full leaf Total Dark Respiration (TDR) measurements without the use of any pre-treatment solution (no SHAM and pretreatment control) were executed for cotton, corn and rice. Data (tables 2, 3 and 4) show clear positive correlation between a) total respiration per unit of fresh weight and ozone level, and b) total respiration per unit of dry weight and ozone level.

[2] = tested on: Sugarcane plants; experiment: AOX and total dark respiration in sugarcane exposed to various levels of ozone; format: in vivo, Saccharum spp.; conditions: for relative AOX, integration of the parabolic function yields / absolute AOX, integration of the parabolic function yields: 60 ppbv
Description: For sugarcane 4 plantlets per pot were provided and these plantlets were transplanted from the agar following washing of their root system with nutrient solution (see below) in order to remove residual agar. Every sugar cane pot was provided with a dome consisting of a 5 litre water flask (PP) of which the bottom was removed creating a 30 cm high dome. Crepe-tape was used to provide an air-tight connection between the bottom rim of the flask and the planting pot. The 40 mm screw cap on top functioned as a ventilation valve, initially maintaining near 100% RV to prevent the plantlets from drying out. Directly after transplanting, the sugar cane plantlets were placed in a phytotron (4 pots per phytotron) more in particular in acrylic cabinets created therein (see below). The sugar cane domes were removed 10 days after transplanting. All plantings were done at day 0. shifting plants to new ozone background for all plants=day 70. […] 60 ppb plants after 8 days (=day 78) in 0 ppb still act as if in 60 ppb. Sugar Cane: plants from 0 ppb, after having their first 70 days of development in 0 ppb, stayed for the nex 33 days (till day 103) in 60 ppb before being placed back in their original 0 ppb. […] Sugarcane plants were grown in the same manner as described above in Example 2. The AOX and total dark respiration were measured for plants exposed to various levels of ozone as described above in Example 2.

[3] = tested on: Cotton; experiment: Total dark respiration and SHAM-sensitive AOX by phase shift fluorescence, cotton leaf sections; format: in vivo, Gossypium spp.; conditions: for increase of AOX respiration compared to the initial AOX respiration rate: ontogenic phase in 0 ppbv ozone ambient
Description: All plantings were done at day 0. shifting plants to new ozone background for all plants=day 70. […] 60 ppb plants after 8 days (=day 78) in 0 ppb still act as if in 60 ppb. Sugar Cane: plants from 0 ppb, after having their first 70 days of development in 0 ppb, stayed for the nex 33 days (till day 103) in 60 ppb before being placed back in their original 0 ppb.
Ozone generators (model OP-35-3P, Grupo Interozone, Brazil) were coupled to ozone monitors (model 202, 2B Technologies, Inc. USA; dynamic range of 1.5 ppbv to 100 ppmv of ozone; precision 1.5 ppbv or 2% of the reading) using a ozone monitor—generator interface (Engineering dep. Crops Advance Brazil). […] This was used as the upper limit for phytotron number one. Phytotron number two was set at 30 ppbv average ozone. Phytotron number three was set at 60 ppbv average ozone. Ozone levels of phytotron number two and three were permanently measured at 10 second intervals and averaged per minute. Each ozone monitor fed averaged values over an analog output to an ozone monitor—ozone generator interface. Hysteresis was set at +/−5 ppbv. Ozone levels were monitored close to the inlet of the two internal circulation ventilators. The ozone generators were adapted to accept an external digital signal from the interface.
Respiration of plant material was tested as follows: Partial oxygen pressure drops due to oxygen consumption as result of dark respiration were measured using phase shift fluorescence measurement. For this, a NeoFox™ Phase Measurement System was used (Fluorometer Bench version using a QBIF600-VIS-NIR laboratory-grade bifurcated optical fiber with FOXY-R-8 cm overcoated fluorescence oxygen needle sensor, Ocean Optics Inc. USA).
Fluorescence phase shift was expressed as Tau in microseconds (μs) and has an inverse and linear relation with the partial oxygen pressure.
Salicylhydroxamic acid (SHAM) (99%, Sigma-Aldrich Brasil Ltda. Sao Paulo, Brazil) was used as an AOX inhibitor. The soluble sodium salicylhydroxamate salt was prepared by titrating SHAM with 0.1 M sodium hydroxide until neural pH. A stock solution ([…]) was prepared containing 300 ml/L ethanol from initial dissolving SHAM (same abbreviation is used for the salicylhydroxamate salt). From the stock solution a 20 mmol/L salicylhydroxamate final test solution was prepared by taking 12.3 ml stock solution and completing till 100 ml with a phosphate buffer solution (pH 7). The final SHAM test solution thus contained 3.7% residual ethanol. For proper control, the comparative test solution was also provided with 3.7 ml of ethanol per 100 ml of phosphate buffer solution (pH 7). To both solutions two drops of wetting agent (Silwet L-77 AG, GE Silicones Inc. USA) were added per 25 ml of test solution.
Plant material collected was always the first fully grown leaf counting from the apical point downwards or outwards (e.g. for monocotyls). […] Per test, four leafs from four different plants were sampled. Cotton leafs were cut in half along the mid nerve. Using a clipper, 16 leaf sections of equal surface area of 400.9 mm2 each were cut, one from each base half and one from each top half part giving 4 sections per leaf and 16 sections per test. The leaf sections were distributed equally over two sub samples, one with and one without salicylhydroxamate. Using a chirurgical blade, all sections were given 7 parallel cuts (through and through) at approximately 2.5 mm apart over almost the full length of the section to guarantee lateral infiltration of the test solutions and gas exchange.
Within 10 minutes of plant sampling the sections were cut, initial subsample weight was registered using a high precision laboratory scale and the subsamples were placed in their solutions with and without salicylhydroxamate for 60 minutes in the dark, to guarantee dark adaptation.
Each sample contained 4 leaves, 4 sections per leaf providing 16 sections, 8 per subsample. […]

[4] = tested on: Cotton; experiment: Full leaf Cotton Total Dark Respiration (TDR) measurements; format: in vivo, Gossypium spp.
Description: as §1

[5] = tested on: Rice; experiment: Full leaf Rice Total Dark Respiration (TDR) measurements; format: in vivo, Oryza sativa L.
Description: as §1

[6] = ozone concentration during growth 30 ppbv
[7] = ozone concentration during growth 60 ppbv
[8] = 0 →30 ppbv ozone: plants grown in 0 ppvb O3 and transferred to 30 ppvb O3
[9] = 0 →60 ppbv ozone: plants grown in 0 ppvb O3 and transferred to 60 ppvb O3 (day 70, 7 days)
[10] = 0 →60 →0 ppbv ozone: grown in 0 ppvb O3, transferred to 60 ppvb O3 and transferred back to 0 ppvb O3
[11] = 60 →0 ppbv ozone: plants grown in 60 ppvb O3 and transferred to 0 ppvb O3 (day 70, 8 days)

O=[O+][O-] [ozone]
Normalized dark respiration activity (dwt) [1, 6]: 14.7 h/Tau/g dry weigth/40 ml
Normalized dark respiration activity (fwt) [1, 6]: 78.3 h/Tau/g fresh weigth/40 ml
Normalized dark respiration activity (dwt) [1, 7]: 14.5 h/Tau/g dry weigth/40 ml
Normalized dark respiration activity (fwt) [1, 7]: 72.1 h/Tau/g fresh weigth/40 ml
relative AOX, integration of the parabolic function yields ([2]; Time of Day 5.3): 0.0%
absolute AOX, integration of the parabolic function yields ([2]; Time of Day 5.6): 0.0
absolute AOX, integration of the parabolic function yields ([2]; Time of Day 23.0): 51.9
relative AOX, integration of the parabolic function yields ([2]; Time of Day 24.3): 436%
AOX at 10:00 am (% of TDR) ([2]; 70 days 0 ppbv, 33 days at 60 ppbv, returned to 0 ppbv, after 5 days): approximately 5 % of TDR
AOX at about 10:00 am (% of TDR) ([2]; 70 days 0 ppbv, 33 days at 60 ppbv, then returned to 0 ppbv, first): approximately 35 % of TDR
AOX level after shift to 0 ppbv ([2]; 70 days at 60 ppbv, thereafter 33 days in 0 ppbv): maintained their 60 ppb AOX levels; also recorded: maintain their high AOX; also recorded: consistently high AOX levels
AOX 60 ppbv/AOX 0 ppbv (dTau/dt/dTau/dt) ([2]; absolute AOX): 169%
AOX 60 ppbv/AOX 0 ppbv (%/%) ([2]; relative AOX): 154%
AOX component (arb units) [3, 8]: 3.26 arb units
AOX/TDR [3, 8]: 30.3%
AOX/TDR relative to initial equilibrium [3, 8]: 116.5%
TDR excl AOX dTau/t (μs/s) without SHAM [3, 8]: 7.51E−06 μs/s
TDR incl AOX dTau/t (μs/s) with SHAM [3, 8]: 1.08E−05 μs/s
AOX component (arb units) [3, 9]: 3.77 arb units
AOX/TDR [3, 9]: 39.6%
AOX/TDR relative to initial equilibrium [3, 9]: 152.5%
TDR excl AOX dTau/t (μs/s) without SHAM [3, 9]: 5.75E−06 μs/s
TDR incl AOX dTau/t (μs/s) with SHAM [3, 9]: 9.52E−06 μs/s
AOX component (arb units) [3, 10]: 2.95 arb units
AOX/TDR [3, 10]: 25.0%
AOX/TDR relative to initial equilibrium [3, 10]: 96.2%
TDR excl AOX dTau/t (μs/s) without SHAM [3, 10]: 8.87E−06 μs/s
TDR incl AOX dTau/t (μs/s) with SHAM [3, 10]: 1.18E−05 μs/s
AOX component (arb units) [3, 11]: 3.97 arb units
AOX/TDR [3, 11]: 35.8%
AOX/TDR relative to initial equilibrium [3, 11]: 100.5%
TDR excl AOX dTau/t (μs/s) without SHAM [3, 11]: 7.13E−06 μs/s
TDR incl AOX dTau/t (μs/s) with SHAM [3, 11]: 1.11E−05 μs/s
increase of AOX respiration compared to the initial AOX respiration rate ([3]; placed in the 30 ppbv ozone ambient): 16.5%
increase of AOX respiration compared to the initial AOX respiration rate ([3]; placed in the 60 ppbv ozone ambient): 52.5%
AOX respiration after return to the 0 ppbv ozone ambient ([3]; ontogenic phase in 0 ppbv, passed time in the 60 ppbv ozone ambient): returned fully to its initial level
AOX component (arb units) ([3]; plants grown in 30 ppvb O3): 2.97 arb units
AOX/TDR ([3]; plants grown in 30 ppvb O3): 29.9%
TDR excl AOX dTau/t (μs/s) without SHAM ([3]; plants grown in 30 ppvb O3): 6.96E−06 μs/s
TDR incl AOX dTau/t (μs/s) with SHAM ([3]; plants grown in 30 ppvb O3): 9.93E−06 μs/s
AOX component (arb units) ([3]; plants grown in 60 ppvb O3): 3.33 arb units
AOX/TDR ([3]; plants grown in 60 ppvb O3): 35.6%
AOX/TDR relative to initial equilibrium ([3]; plants grown in 60 ppvb O3): 100.0%
TDR excl AOX dTau/t (μs/s) without SHAM ([3]; plants grown in 60 ppvb O3): 6.03E−06 μs/s
TDR incl AOX dTau/t (μs/s) with SHAM ([3]; plants grown in 60 ppvb O3): 9.36E−06 μs/s
AOX respiration during stay in the zero ozone level ambient ([3]; plants grown up in the 60 ppbv ozone level ambient): did not lower their AOX respiration
Normalized dark respiration activity (dwt) [4, 6]: 13.4 h/Tau/g dry weigth/40 ml
Normalized dark respiration activity (fwt) [4, 6]: 72.6 h/Tau/g fresh weigth/40 ml
Normalized dark respiration activity (dwt) [4, 7]: 12.7 h/Tau/g dry weigth/40 ml
Normalized dark respiration activity (fwt) [4, 7]: 67.9 h/Tau/g fresh weigth/40 ml
Normalized dark respiration activity (dwt) [5, 6]: 8.2 h/Tau/g dry weigth/40 ml
Normalized dark respiration activity (fwt) [5, 6]: 29.2 h/Tau/g fresh weigth/40 ml
Normalized dark respiration activity (dwt) [5, 7]: 7.6 h/Tau/g dry weigth/40 ml
Normalized dark respiration activity (fwt) [5, 7]: 29.4 h/Tau/g fresh weigth/40 ml
